The test deals with TBK1 (Homo sapiens (Human), UniProt Q9UHD2). As to the kind of experiment: TBK1 low ATP kinase assay (in vitro assay 1). The format is biochemical. The following applies: in vitro assay 1, read-out: TBK1 low ATP kinase assay IC50.

Consider 27 molecules from US10894784B2, “Heteroarylbenzimidazole compounds” (BAYER PHARMA AKTIENGESELLSCHAFT, priority 2015, dated 2021).

Chain of TBK1 (Q9UHD2 whole entry): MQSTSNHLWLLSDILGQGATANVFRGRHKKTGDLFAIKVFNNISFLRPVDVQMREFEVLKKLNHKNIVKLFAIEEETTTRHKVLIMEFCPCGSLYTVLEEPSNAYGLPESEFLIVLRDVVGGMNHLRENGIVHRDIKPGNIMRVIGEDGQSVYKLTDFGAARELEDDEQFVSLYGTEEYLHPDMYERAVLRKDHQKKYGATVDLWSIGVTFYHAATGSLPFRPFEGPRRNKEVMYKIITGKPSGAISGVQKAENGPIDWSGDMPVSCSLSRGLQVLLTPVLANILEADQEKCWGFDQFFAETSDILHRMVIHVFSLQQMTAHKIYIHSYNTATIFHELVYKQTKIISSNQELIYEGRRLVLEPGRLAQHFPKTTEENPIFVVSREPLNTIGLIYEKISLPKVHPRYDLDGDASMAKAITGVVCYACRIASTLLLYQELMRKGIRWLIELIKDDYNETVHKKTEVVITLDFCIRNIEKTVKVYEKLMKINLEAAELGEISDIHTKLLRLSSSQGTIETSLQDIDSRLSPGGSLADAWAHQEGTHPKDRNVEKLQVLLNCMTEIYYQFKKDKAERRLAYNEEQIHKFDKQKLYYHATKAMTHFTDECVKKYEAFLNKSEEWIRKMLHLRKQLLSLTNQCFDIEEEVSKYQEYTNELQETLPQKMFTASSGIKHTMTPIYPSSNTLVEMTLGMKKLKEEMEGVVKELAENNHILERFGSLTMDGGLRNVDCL

As to `O=C(C1CC1)N1CCN(Cc2ccnc(Nc3nc4ccc(-c5cc(OCC6CC6)ncn5)cc4[nH]3)c2)CC1` [Example 80.03, cyclopropyl(4-{[2-({6-[6-(cyclopropylmethoxy)pyrimidin-4-yl]-1H-benzimidazol-2-yl}amino)pyridin-4-yl]methyl}piperazin-1-yl)methanone], the IC50 is 2.9 nM.
On to `COc1nccc(-c2ccc3nc(Nc4cc(CN5CCN(C(=O)C6CC6)CC5)ccn4)[nH]c3c2)c1C` [Example 10.01, cyclopropyl{4-[(2-{[6-(2-methoxy-3-methylpyridin-4-yl)-1H-benzimidazol-2-yl]amino}pyridin-4-yl)methyl]piperazin-1-yl}methanone], for which the IC50 worked out at 2260 nM.
In the case of `CN(CC1CC1)c1cc(-c2ccc3nc(Nc4cc(CN5CCN(C(=O)C6CC6)CC5)ccn4)[nH]c3c2)ncn1` [Example 141.03, cyclopropyl[4-({2-[(6-{6-[(cyclopropylmethyl)(methyl)amino]pyrimidin-4-yl}-1H-benzimidazol-2-yl)amino]pyridin-4-yl}methyl)piperazin-1-yl]methanone], the IC50 worked out at 13 nM.
For `CC(C)Oc1cncnc1-c1ccc2nc(Nc3cc(C(C)N4CCN(C(=O)C5CC5)CC4)ccn3)[nH]c2c1` (single isomer, unassigned) [Example 36.03, cyclopropyl(4-{(1R or 1S)-1-[2-({6-[5-(propan-2-yloxy)pyrimidin-4-yl]-1H-benzimidazol-2-yl}amino)pyridin-4-yl]ethyl}piperazin-1-yl)methanone], the IC50 is 2.13 nM.
Consider `COc1c(-c2ccc3nc(Nc4cc(CN5CCN(C(=O)OC(C)(C)C)CC5)ccn4)[nH]c3c2)ncnc1N(C)C` [Example 107.01.01, tert-butyl 4-{[2-({6-[6-(dimethylamino)-5-methoxypyrimidin-4-yl]-1H-benzimidazol-2-yl}amino)pyridin-4-yl]methyl}piperazine-1-carboxylate], for which the IC50 turned out to be 52 nM.
Then `CCOc1cnc(C)cc1-c1ccc2nc(Nc3cc(CN4CCN(C(=O)C5CCC5)CC4)ccn3)[nH]c2c1` [Example 09.04, cyclobutyl{4-[(2-{[6-(5-ethoxy-2-methylpyridin-4-yl)-1H-benzimidazol-2-yl]amino}pyridin-4-yl)methyl]piperazin-1-yl}methanone], with 352 nM.
Regarding `Cc1nc(Cl)cc(-c2ccc3nc(Nc4cc(CN5CCN(C(=O)OC(C)(C)C)CC5)ccn4)[nH]c3c2)n1` [Example 186.01, tert-butyl 4-[(2-{[6-(6-chloro-2-methylpyrimidin-4-yl)-1H-benzimidazol-2-yl]amino}pyridin-4-yl)methyl]piperazine-1-carboxylate], the IC50 turned out to be 59.1 nM.
For `O=C(CC(F)(F)F)N1CCN(Cc2ccnc(Nc3nc4ccc(-c5ccn(CC6CC6)c(=O)c5)cc4[nH]3)c2)CC1` [Example 44.01, 1-(cyclopropylmethyl)-4-{2-[(4-{[4-(3,3,3-trifluoropropanoyl)piperazin-1-yl]methyl}pyridin-2-yl)amino]-1H-benzimidazol-6-yl}pyridin-2(1H)-one], the IC50 was found to be 94 nM.
As for `CC(C)(C)OC(=O)N1CCN(Cc2ccnc(Nc3nc4ccc(-c5cc(N6CCCCC6)ncn5)cc4[nH]3)c2)CC1` [Example 145.01, tert-butyl 4-{[2-({6-[6-(piperidin-1-yl)pyrimidin-4-yl]-1H-benzimidazol-2-yl}amino)pyridin-4-yl]methyl}piperazine-1-carboxylate], the concentration for half-maximal inhibition (IC50) came out at 13 nM.
On to `COc1nccc(-c2ccc3nc(Nc4cc(CN5CCN(C(=O)CC(F)(F)F)CC5)ccn4)[nH]c3c2)n1` [Example 25.01.04, 3,3,3-trifluoro-1-{4-[(2-{[6-(2-methoxypyrimidin-4-yl)-1H-benzimidazol-2-yl]amino}pyridin-4-yl)methyl]piperazin-1-yl}propan-1-one], for which the IC50 was found to be 79 nM.
In the case of `CC(C)Oc1cc(-c2ccc3nc(Nc4cc(CN5CCN(C(=O)C6CC6)CC5)ccn4)[nH]c3c2)ncn1` [Example 160.03, cyclopropyl(4-{[2-({6-[6-(propan-2-yloxy)pyrimidin-4-yl]-1H-benzimidazol-2-yl}amino)pyridin-4-yl]methyl}piperazin-1-yl)methanone], the IC50 came to 8.5 nM.
For the molecule `COc1c(-c2ccc3nc(Nc4cc(C(C)N5CCN(C(=O)C6CC6)CC5)ccn4)[nH]c3c2)ncnc1N1CCCC1` (single isomer, unassigned) [Example 112.02, cyclopropyl(4-{(1R or 1S)-1-[2-({6-[5-methoxy-6-(pyrrolidin-1-yl)pyrimidin-4-yl]-1H-benzimidazol-2-yl}amino)pyridin-4-yl]ethyl}piperazin-1-yl)methanone], the IC50 turned out to be 1.3 nM.
Regarding `CC(c1ccnc(Nc2nc3ccc(-c4cnn(CC5CC5(F)F)c4)cc3[nH]2)c1)N1CCN(C(=O)C2CC2)CC1` (single isomer, unassigned) [Example 55.03.01, cyclopropyl{4-[(1R or 1S)-1-(2-{[6-(1-{[(1R or 1S)-2,2-difluorocyclopropyl]methyl}-1H-pyrazol-4-yl)-1H-benzimidazol-2-yl]amino}pyridin-4-yl)ethyl]piperazin-1-yl}methanone], the IC50 was found to be 0.61 nM.
In the case of `CCN(CC)c1cc(-c2ccc3nc(Nc4cc(CN5CCN(C(=O)CC(F)(F)F)CC5)ccn4)[nH]c3c2)ncn1` [Example 155.02, 1-(4-{[2-({6-[6-(diethylamino)pyrimidin-4-yl]-1H-benzimidazol-2-yl}amino)pyridin-4-yl]methyl}piperazin-1-yl)-3,3,3-trifluoropropan-1-one], the IC50 was determined as 15 nM.
As to `CN(CC(F)(F)F)c1cc(-c2ccc3nc(Nc4cc(CN5CCN(C(=O)OC(C)(C)C)CC5)ccn4)[nH]c3c2)ncn1` [Example 146.01, tert-butyl 4-({2-[(6-{6-[methyl(2,2,2-trifluoroethyl)amino]pyrimidin-4-yl}-1H-benzimidazol-2-yl)amino]pyridin-4-yl}methyl)piperazine-1-carboxylate], the IC50 was 14 nM.
Then `O=C(CC1CC1)N1CCN(Cc2ccnc(Nc3nc4ccc(-c5nc(C6CC6)no5)cc4[nH]3)c2)CC1` [Example 17.03, 2-cyclopropyl-1-{4-[(2-{[6-(3-cyclopropyl-1,2,4-oxadiazol-5-yl)-1H-benzimidazol-2-yl]amino}pyridin-4-yl)methyl]piperazin-1-yl}ethanone], with 56.5 nM; and `CC(c1ccnc(Nc2nc3ccc(-c4cnn(CC5(Cl)CC5)c4)cc3[nH]2)c1)N1CCN(C(=O)CC(F)(F)F)CC1` (single isomer, unassigned) [Example 69.02, 1-{4-[(1R or 1S)-1-{2-[(6-{1-[(1-chlorocyclopropyl)methyl]-1H-pyrazol-4-yl}-1H-benzimidazol-2-yl)amino]pyridin-4-yl}ethyl]piperazin-1-yl}-3,3,3-trifluoropropan-1-one], with 0.64 nM.
Turning to `Cc1nccc(-c2ccc3nc(Nc4cc(CN5CCN(C(=O)C6CC6)CC5)ccn4)[nH]c3c2)n1` [Example 24.01.03, cyclopropyl{4-[(2-{[6-(2-methylpyrimidin-4-yl)-1H-benzimidazol-2-yl]amino}pyridin-4-yl)methyl]piperazin-1-yl}methanone], the IC50 is 43.2 nM.
Then `COc1cnccc1-c1ccc2nc(Nc3cc(CN4CCN(C(=O)C(C)(C)OC)CC4)ccn3)[nH]c2c1` [Example 04.10, 2-methoxy-1-{4-[(2-{[6-(3-methoxypyridin-4-yl)-1H-benzimidazol-2-yl]amino}pyridin-4-yl)methyl]piperazin-1-yl}-2-methylpropan-1-one], with 28.3 nM; and `CCOc1ncnc(-c2ccc3nc(Nc4cc(CN5CCN(C(=O)C6(C(F)(F)F)CC6)CC5)ccn4)[nH]c3c2)c1OC` [Example 167.04], with 23.7 nM; and `Cc1c(-c2ccc3nc(Nc4cc(CN5CCN(C(=O)OC(C)(C)C)CC5)ccn4)[nH]c3c2)ncnc1C(F)(F)F` [Example 183.01, tert-butyl 4-{[2-({6-[5-methyl-6-(trifluoromethyl)pyrimidin-4-yl]-1H-benzimidazol-2-yl}amino)pyridin-4-yl]methyl}piperazine-1-carboxylate], with 7280 nM.
For the molecule `CN(C)c1cc(-c2ccc3nc(Nc4cc(CN5CCN(C(=O)C6CC6)CC5)ccn4)[nH]c3c2)ncn1` [Example 143.03, cyclopropyl(4-{[2-({6-[6-(dimethylamino)pyrimidin-4-yl]-1H-benzimidazol-2-yl}amino)pyridin-4-yl]methyl}piperazin-1-yl)methanone], the IC50 was determined as 4.8 nM.
On to `COc1c(NCC2CC2)ncnc1-c1ccc2nc(Nc3cc(CN4CCN(C(=O)C5CC5)CC4)ccn3)[nH]c2c1` [Example 109.01.03, cyclopropyl[4-({2-[(6-{6-[(cyclopropylmethyl)amino]-5-methoxypyrimidin-4-yl}-1H-benzimidazol-2-yl)amino]pyridin-4-yl}methyl)piperazin-1-yl]methanone], for which the IC50 came out at 8.7 nM.
The value for `COc1cccnc1N1CCN(Cc2ccnc(Nc3nc4ccc(-c5nc(C)no5)cc4[nH]3)c2)CC1` [Example 101.17, N-(4-{[4-(3-methoxypyridin-2-yl)piperazin-1-yl]methyl}pyridin-2-yl)-6-(3-methyl-1,2,4-oxadiazol-5-yl)-1H-benzimidazol-2-amine] was 150 nM.
Regarding `O=C(C1CC1)N1CCN(Cc2ccnc(Nc3nc4ccc(-c5cnn(CC(F)(F)F)c5)cc4[nH]3)c2)CC1` [Example 58.01.03, cyclopropyl(4-{[2-({6-[1-(2,2,2-trifluoroethyl)-1H-pyrazol-4-yl]-1H-benzimidazol-2-yl}amino)pyridin-4-yl]methyl}piperazin-1-yl)methanone], the IC50 amounted to 6.44 nM.
Regarding `O=C(C1CC1)N1CCN(Cc2ccnc(Nc3nc4ccc(-c5cc(NC6CC6)ncn5)cc4[nH]3)c2)CC1` [Example 151.03, cyclopropyl(4-{[2-({6-[6-(cyclopropylamino)pyrimidin-4-yl]-1H-benzimidazol-2-yl}amino)pyridin-4-yl]methyl}piperazin-1-yl)methanone], the IC50 was found to be 1 nM.
As to `Cc1nccc(-c2ccc3nc(Nc4cc(CN5CCN(C(=O)C6CCC6)CC5)ccn4)[nH]c3c2)n1` [Example 24.01.02, cyclobutyl{4-[(2-{[6-(2-methylpyrimidin-4-yl)-1H-benzimidazol-2-yl]amino}pyridin-4-yl)methyl]piperazin-1-yl}methanone], the IC50 amounted to 39.9 nM.

One may read the IC50 as the concentration at which inhibition is half-maximal.
